Settings in all cases: male, Sprague-Dawley, rat, in vivo
One data set concerns P450 MCA-inducible. The protocol:
(§1) Animals were monitored daily for physical condition and body weight, and blood samples were assayed for serum alanine transferase (ALT) and aspartate aminotransferase (AST) levels using a diagnostic kit (Sigma Aldrich). Three animals per group were sacrificed approximately 12 hours (h), 24 h, 72 h, 168 h, 336 h and 672 h following the last dose administered. Observed gross pathology and liver weights were recorded at time of necropsy. Liver, kidney, brain, spleen and pancreas from each rat were harvested, flash frozen in liquid nitrogen, and stored at −80° C.
(§2) Frozen liver was homogenized and lysed in TRIZOL reagent (Cat. #10296-028; Life Technologies) following the modifications for liver RNA isolation. Poly(A+) RNA was isolated using an OLIGOTEX kit (Qiagen, Carlsbad, Calif.) and labeled with either Cy3 or Cy5-labeled primers (Operon Technologies, Alameda, Calif.) using the GEMBRIGHT labeling kit (Incyte Genomics). MRNA isolated from tissues of rats dosed with PB was labeled with Cy5 and mRNA isolated from tissues of rats dosed with DMSO was labeled with Cy3. Quantitative and differential expression pattern control cDNAs were added to each labeling reaction. Labeled cDNA was treated with 0.5 M sodium bicarbonate (pH9.2) for 20 min at 85° C. to degrade the RNA and purified using two successive CHROMA SPIN 30 gel filtration spin columns (Clontech, Palo Alto, Calif.). Cy3 labeled control sample and Cy5 labeled experimental sample were combined and precipitated in glycogen, sodium acetate, and ethanol.
(§3) Hybridization reactions contained 9 microliters of probe mixture consisting of 0.2 micrograms each of both Cy3 and Cy5 labeled cDNA synthesis products in 5×SSC, 0.2% SDS hybridization buffer. The probe mixture was heated to 65° C. for 5 min and was aliquoted onto the microarray surface and covered with an 1.8 cm^2 coverslip. The arrays were transferred to a waterproof chamber having a cavity just slightly larger than a microscope slide. The chamber was kept at 100% humidity internally by the addition of 140 microliters of 5×SSC in a corner of the chamber. The chamber containing the arrays was incubated for about 6.5 hours at 60° C. The arrays were washed for 10 min at 45° C. in low stringency wash buffer (1×SSC, 0.1% SDS), three times for 10 min each at 45 ° C. in high stringency wash buffer (0.1×SSC), and then dried.
(§4) The microscope used to detect the reporter-labeled hybridization complexes was outfitted with an Innova 70 mixed gas 10 W laser (Coherent Lasers, Santa Clara, Calif.) capable of generating spectral lines at 488 nm for excitation of Cy3, and 632 nm for excitation of Cy5. The excitation laser light was focused on the array using a 20X microscope objective (Nikon). […]

Another data set relates to P450 ISF/B-NF. The protocol:
as §1, §2, §3, §4

In the next data set the test system is P450 LA-omega. The protocol: as §1, §2, §3, §4
In another data set the test system is SEQ ID NOs: 1-47. The protocol: as §1, §2, §3, §4

As for `c1ccc2c(c1)cc1ccc3cccc4ccc2c1c34` [benzo(a)pyrene], the “P450 MCA-inducible upregulated at least once during the time course” value with P450 MCA-inducible was “greater than 3 fold”. Moreover, the “P450 ISF/B-NF upregulated at least once during the time course” value with P450 ISF/B-NF is listed as “greater than 3 fold”. In addition, the “P450 LA-omega upregulated at least once during the time course” value in the data set with P450 LA-omega was “greater than 3 fold”. Further, in the data set on SEQ ID NOs: 1-47, the “SEQ ID NOs: 1-47 up-regulated or downregulated at least once during the time course” value is on record as “at least 3 fold”.
